Where only a bound is given, the exact number is not on record here.

In this test the test system is TEAD-dependent transcription. Description: TEAD-dependent transcription cell-based reporter assay (MSTO-211H+12XGTIIC luciferase). Conditions: Homo sapiens; MSTO-211H+12XGTIIC reporter cells, 24 hours compound incubation, luminescence normalized to viability; read-out: MSTO-211H GMean IC50 (uM) Cell Assay Reporter Cell Variant: TEAD. Also on record: species or system human. From the text: The human mesothelioma cell line MSTO-211H was stably transfected with a pGL4.21 plasmid containing a synthetic promoter with 12 copies of the GTIIC TEAD response element that drives the expression of a luciferase reporter gene^1 using Lipofectamine transfection reagent (Thermo Fisher). Transfected cells were selected using puromycin and single cell clones expressing this construct (referred to as MSTO-211H+12XGTIIC) were generated by limiting dilution. MSTO-211H cells was characterized by genetic alterations in key components of the Hippo pathway^2, resulting in up-regulation of YAP/TEAD-mediated transcription. […] To evaluate TEAD inhibitors, the MSTO-211H+12XGTIIC cell line was seeded in a 96-well plate in 50 μL of culture media at 1×10^4 cells per well and incubated at 37° C. overnight. Serial dilutions of compounds (in total volume of 50 μL of culture media) were added to the cells and incubated at 37° C. for 24 hours. Each plate included cells treated with DMSO as high controls and cells treated with 20 μM of the reference compound K-975 (a known TEAD inhibitor)^3 as low controls. Cell viability was assayed by the addition of 25 μL of CellTiter-Fluor reagent (Promega) followed by a 30-minute incubation at 37° C. and quantification of the fluorescence signal (Ex400/Em505). Subsequently, luciferase expression was assayed by the addition of 25 μL of ONE-Glo reagent (Promega) followed by a 10-minute incubation at room temperature and quantification of the luminescence signal. The luminescence signal was normalized to the fluorescence signal to correct for any loss in cell viability over the 24-hour compound incubation period. The percentage of inhibition of normalized luminescence signal, indicative of compound-mediated inhibition of TEAD-dependent transcription, at individual compound concentrations relative to high and low controls was calculated. The data were analyzed by using nonlinear regression to generate IC50 values for individual compounds.
Background: Reporter assays use an easily measured gene product as a stand-in for the process of interest.
As for `C[C@@H](Nc1ccccn1)C(=O)N1CCc2cc(-c3ccc(C(F)(F)F)cc3)ccc2C1` [O-0145, (R)-2-(pyridin-2-ylamino)-1-(6-(4-(trifluoromethyl)phenyl)-3,4-dihydroisoquinolin-2(1H)-yl)propan-1-one], the concentration for half-maximal inhibition (IC50) is 0.001 to 10 µM.
As to `C[C@@H](NS(C)(=O)=O)C(=O)N1CCc2cc(-c3ccc(C(F)(F)F)cc3)ccc2C1` [O-0161, (R)-N-(1-oxo-1-(6-(4-(trifluoromethyl)phenyl)-3,4-dihydroisoquinolin-2(1H)-yl)propan-2-yl)methanesulfonamide], the IC50 lay in the range of 0.001 to 10 µM.
Regarding `C[C@@H](NC(=O)c1ccccn1)C(=O)N1CCc2ccc(-c3ccc(C(F)(F)F)cc3)cc2C1` [O-0177, (R)-N-(1-oxo-1-(7-(4-(trifluoromethyl)phenyl)-3,4-dihydroisoquinolin-2(1H)-yl)propan-2-yl)picolinamide], the IC50 was in the range of 0.001 to 10 µM.
Turning to `CC(=O)N[C@H](C)C(=O)N1CCc2ccc(-c3ccc(C(F)(F)F)cc3)cc2C1` [O-0182, (R)-N-(1-oxo-1-(7-(4-(trifluoromethyl)phenyl)-3,4-dihydroisoquinolin-2(1H)-yl)propan-2-yl)acetamide], the half-inhibitory concentration (IC50) lay in the range of 0.001 to 10 µM.
For the compound `C[C@@H](NS(C)(=O)=O)C(=O)N1CCc2c(cccc2-c2ccc(C(F)(F)F)cc2)C1` [O-0185, (R)-N-(1-oxo-1-(5-(4-(trifluoromethyl)phenyl)-3,4-dihydroisoquinolin-2(1H)-yl)propan-2-yl)methanesulfonamide], the IC50 was in the range of 0.001 to 10 µM.
As to `C[C@@H](N)C(=O)N1CCc2cc(-c3ccc(C(F)(F)F)cc3)ccc2C1` [O-0186, (R)-2-amino-1-(6-(4-(trifluoromethyl)phenyl)-3,4-dihydroisoquinolin-2(1H)-yl)propan-1-one], the half-inhibitory concentration (IC50) fell in the range of 0.001 to 10 µM.
With `C[C@@H](N)C(=O)N1CCc2ccc(-c3ccc(C(F)(F)F)cc3)cc2C1` [O-0187, (R)-2-amino-1-(7-(4-(trifluoromethyl)phenyl)-3,4-dihydroisoquinolin-2(1H)-yl)propan-1-one], the IC50 is 0.001 to 10 µM.
For the compound `O=C(c1c[nH]c(C(F)(F)F)n1)N1CCc2ccc(-c3ccc(C(F)(F)F)cc3)cc2C1` [O-0188, (2-(trifluoromethyl)-1H-imidazol-4-yl)(7-(4-(trifluoromethyl)phenyl)-3,4-dihydroisoquinolin-2(1H)-yl)methanone], the half-maximal inhibitory concentration (IC50) lay within 10 to 100 µM.
On to `CS(=O)(=O)c1nc(C(=O)N2CCc3ccc(-c4ccc(C(F)(F)F)cc4)cc3C2)c[nH]1` [O-0189, (2-(methylsulfonyl)-1H-imidazol-4-yl)(7-(4-(trifluoromethyl)phenyl)-3,4-dihydroisoquinolin-2(1H)-yl)methanone], for which the IC50 lay within 0.001 to 10 µM.
On to `CS(=O)(=O)c1nc(C(=O)N2CCc3cc(-c4ccc(C(F)(F)F)cc4)ccc3C2)c[nH]1` [O-0190, (2-(methylsulfonyl)-1H-imidazol-4-yl)(6-(4-(trifluoromethyl)phenyl)-3,4-dihydroisoquinolin-2(1H)-yl)methanone], for which the 50% inhibitory concentration (IC50) lay in the range of 0.001 to 10 µM.
On to `O=C(c1c[nH]c(C(F)(F)F)n1)N1CCc2cc(-c3ccc(C(F)(F)F)cc3)ccc2C1` [O-0191, (2-(trifluoromethyl)-1H-imidazol-4-yl)(6-(4-(trifluoromethyl)phenyl)-3,4-dihydroisoquinolin-2(1H)-yl)methanone], for which the concentration for half-maximal inhibition (IC50) lay within 0.001 to 10 µM.
With `O=C(c1c[nH]c(C(F)(F)F)n1)N1CCc2c(cccc2-c2ccc(C(F)(F)F)cc2)C1` [O-0192, (2-(trifluoromethyl)-1H-imidazol-4-yl)(5-(4-(trifluoromethyl)phenyl)-3,4-dihydroisoquinolin-2(1H)-yl)methanone], the IC50 is above 100 µM.
Turning to `CS(=O)(=O)c1nc(C(=O)N2CCc3c(cccc3-c3ccc(C(F)(F)F)cc3)C2)c[nH]1` [O-0193, (2-(methylsulfonyl)-1H-imidazol-4-yl)(5-(4-(trifluoromethyl)phenyl)-3,4-dihydroisoquinolin-2(1H)-yl)methanone], the IC50 fell in the range of 10 to 100 µM.
For `C[C@H](N)C(=O)N1CCc2c(cccc2-c2ccc(C(F)(F)F)cc2)C1` [O-0194, (S)-2-amino-1-(5-(4-(trifluoromethyl)phenyl)-3,4-dihydroisoquinolin-2(1H)-yl)propan-1-one], the IC50 is 0.001 to 10 µM.
With `C[C@H](NC(=O)OC(C)(C)C)C(=O)N1CCc2c(cccc2-c2ccc(C(F)(F)F)cc2)C1` [O-0195, tert-butyl (S)-(1-oxo-1-(5-(4-(trifluoromethyl)phenyl)-3,4-dihydroisoquinolin-2(1H)-yl)propan-2-yl)carbamate], the IC50 is above 100 µM.
For the compound `C[C@@H](NC(=O)OC(C)(C)C)C(=O)N1CCc2c(cccc2-c2ccc(C(F)(F)F)cc2)C1` [O-0196, tert-butyl (R)-(1-oxo-1-(5-(4-(trifluoromethyl)phenyl)-3,4-dihydroisoquinolin-2(1H)-yl)propan-2-yl)carbamate], the half-inhibitory concentration (IC50) was above 100 µM.

Usually IC50 stands for the concentration needed to halve the response being measured.

Values taken from patent publication US20250376445A1, “COMPOUNDS AND METHODS FOR YAP/TEAD MODULATION AND INDICATIONS THEREFOR” (OPNA BIO SA, priority 2023, published 2025).
